Consider three compounds from publication PMC9258321, “Structure-guided design of CPPC-paired disulfide-rich peptide libraries for ligand and drug discovery” (Chemical Science, 2022).

Experiment [1] relates to CD28 expressed on the surface of HEK293T cells. Put plainly: Laser confocal cell imaging, labeling CD28 on HEK293T cells. The experiment is classed as cell-based. The following applies: HEK293T cells transfected with mCherry-CD28 vs mCherry control; 1 μM peptide in DMEM, 30 min, washed; confocal colocalization. As for the experimental part: Finally, we examined the specific binding capability of drp8 to CD28 expressed on the surface of the cells. HEK293T cells transfected with a plasmid expressing the extracellular domain of CD28 fused with an extracellular-targeting signaling sequence, a fluorescent mCherry tag, and a transmembrane domain was constructed for the experiments. Briefly, the transfected cells were incubated with the fluorescein-labeled drp8 for 30 min, followed by washing with culture media to remove the unbound peptide. Confocal fluorescence images were then recorded (Fig. 5d), showing the colocalization of fluorescence from the mCherry tag and the labeled peptide.
Surface plasmon resonance (SPR) assay
The affinity of peptides to Keap1 was measured using Biacore T200 (GE healthcare) at 25℃. […]
NMR samples were dissolved in 80% perdeuterated acetonitrile and 20% H2O for drp1, 75% perdeu-terated acetonitrile and […] for drp2-a, 60% perdeuterated acetonitrile and 40% H2O for drp8, 50% perdeuterated acetonitrile and 50% H2O for drp3 and drp6, 40% perdeuterated acetonitrile and 60% H2O for drp2-b and drp4 (The solution conditions depend on the dispersion of cross -peaks). […] Two dimensional (2D) 1H, 15N/13C HSQC spectra were recorded to obtain chemical shifts of heavy atoms in backbone and side-chains. […]

In the next experiment the test system is CTLA-4. Kind of experiment: Fluorescence polarization binding assay to CTLA-4. Conditions: FP assay, oxidized fluorescein-labeled peptide; Fig. S23. The procedure:
(§1) min incubation at room temperature, the fluorescence anisotropies were measured using a plate reader (Eex= 485 nm, Eem=535 nm). All of the measurements were recorded in triplicate. In the fluorescence polarization assay s measuring the binding of reduced FITC-drp8 to CD28 and the binding of oxidized FITC-drp8 to CTLA-4, the fluorescence anisotrop ies were recorded in the same way as described above.
(§2) Dissociation constants ( KD) were determined by nonlinear regression analysis of anisotrop ies versus the concentrations of the protein using the following equation: […]
(§3) Y = A1 + (A2 − A1) × { 2×C } (1)
(§4) X: the concentration of protein, Y: the measured fluorescence anisotropy, C: the concentration of fluores-cent peptide, A1: the bottom plateaus of anisotropy, A2: the anisotropy signal in the presence of saturating concentrations of CD28, KD: the dissociation constant.
(§5) (b) Competition fluorescence polarization assay. The binding of drp8 to CD28 was measured by adding dilutions of drp8 to premixed oxidized FITC-drp8 and CD28 in PBS (pH 7.4). […] After 10 min incubation at room temperature, the plate was read using a plate reader (Eex= 485 nm, Eem = 535 nm). In the competition fluorescence polarization assay measuring the binding of drp1, drp7 and drp9 to CD28, the fluorescence anisotropies were recorded in the same way as described above. […]

Experiment [2] concerns the target T1, CD28 (Homo sapiens, UniProt P10747).
T1 construct: purchased Sino Biological 11524-HCCH
Put plainly: FP assay: CD80 added to premixed oxidized FITC-drp8 and CD28. The format is binding. The following applies: CD80 50-500 nM added to 25 nM oxidized FITC-drp8 and 100 nM CD28, PBS pH 7.4, 20 min room temperature, Fig. S22. The procedure:
as §1, §2, §3, §4, §5

Experiment [3] addresses T1, CD28. Put plainly: Competition fluorescence polarization assay with oxidized FITC-drp8 as probe. Conditions: FP competition with oxidized FITC-drp8; negative control. The format is binding. As for the experimental part:
as §1, §2, §3, §4, §5

Bridge positions count the residues as written; N and C are the ends. Peptide text beside a SMILES is read from it. * marks the point of attachment. FITC = O=C1OC2(c3ccc(O)cc3Oc3cc(O)ccc32)c2ccc(NC(=S)*)cc21; βAla = NCCC(=O)O

T1 sequence (P10747 19-220): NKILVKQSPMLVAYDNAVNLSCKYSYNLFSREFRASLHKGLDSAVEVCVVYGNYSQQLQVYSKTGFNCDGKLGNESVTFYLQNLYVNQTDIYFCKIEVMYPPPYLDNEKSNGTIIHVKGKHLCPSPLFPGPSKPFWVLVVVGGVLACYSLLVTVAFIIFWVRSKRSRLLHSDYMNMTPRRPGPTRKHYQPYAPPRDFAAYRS

In the case of `CC(C)C[C@@H]1NC(=O)CNC(=O)[C@H](CCC(=O)O)NC(=O)[C@@H]2CSSC[C@H](NC(=O)[C@H](CC(N)=O)NC(=O)[C@H](CC(N)=O)NC1=O)C(=O)N[C@@H](Cc1c[nH]c3ccccc13)C(=O)N[C@@H](Cc1ccccc1)C(=O)N[C@@H](C(C)C)C(=O)N[C@@H](CCC(=O)O)C(=O)N[C@@H](C)C(=O)N[C@H]1CSSC[C@H](NC(=O)CNC(=O)CCNC(=S)Nc3ccc4c(c3)C(=O)OC43c4ccc(O)cc4Oc4cc(O)ccc43)C(=O)N3CCC[C@H]3C(=O)N3CCC[C@H]3C(=O)N[C@@H](CSSC[C@@H](C(N)=O)NC(=O)[C@@H]3CCCN3C(=O)[C@@H]3CCCN3C1=O)C(=O)N1CCC[C@H]1C(=O)N[C@@H](CCCNC(=N)N)C(=O)N[C@@H](CCC(=O)O)C(=O)N[C@@H](Cc1c[nH]cn1)C(=O)N[C@@H](CCC(=O)O)C(=O)N[C@@H](CC(C)C)C(=O)N[C@@H](C(C)C)C(=O)N[C@@H](C)C(=O)N[C@@H](C(C)C)C(=O)N1CCC[C@H]1C(=O)N2` [FITC-drp8] ({FITC-βAla}-GCPPCPREHELVAVPCEGLNNCWFVEACPPC-NH2; disulfide 2-28, 5-31, 16-22), the “binding to CD28 on the cell surface (in words)” value in experiment [1] is listed as “can specifically bind with CD28 on the live cell surface”. For the compound `CC(C)C[C@@H]1NC(=O)CNC(=O)[C@H](CCC(=O)O)NC(=O)[C@@H]2CSSC[C@H](NC(=O)[C@H](CC(N)=O)NC(=O)[C@H](CC(N)=O)NC1=O)C(=O)N[C@@H](Cc1c[nH]c3ccccc13)C(=O)N[C@@H](Cc1ccccc1)C(=O)N[C@@H](C(C)C)C(=O)N[C@@H](CCC(=O)O)C(=O)N[C@@H](C)C(=O)N[C@H]1CSSC[C@H](NC(=O)CN)C(=O)N3CCC[C@H]3C(=O)N3CCC[C@H]3C(=O)N[C@@H](CSSC[C@@H](C(N)=O)NC(=O)[C@@H]3CCCN3C(=O)[C@@H]3CCCN3C1=O)C(=O)N1CCC[C@H]1C(=O)N[C@@H](CCCNC(=N)N)C(=O)N[C@@H](CCC(=O)O)C(=O)N[C@@H](Cc1c[nH]cn1)C(=O)N[C@@H](CCC(=O)O)C(=O)N[C@@H](CC(C)C)C(=O)N[C@@H](C(C)C)C(=O)N[C@@H](C)C(=O)N[C@@H](C(C)C)C(=O)N1CCC[C@H]1C(=O)N2` [drp8] (H-GCPPCPREHELVAVPCEGLNNCWFVEACPPC-NH2; disulfide 2-28, 5-31, 16-22), in the experiment on CTLA-4, the “binding affinity to CTLA4 (in words)” value is recorded as “negligible binding affinity”. Besides, the “competition with CD80 for CD28 (in words)” value at CD28 [2] was “capable of blocking the CD80 and CD28 interaction”. Turning to “H-CPPCHGRPTCDSFTNCWELLTCPPC-NH2 (also: bicyclic or more (positions not given here)) [drp1, template and negative control for CD28]”, the “binding to CD28 in competition assay (in words)” value at CD28 [3] is given as “negligibly binds with CD28”.
